Experimental data published in patent US10130693B2, “Peptides, combination of peptides and scaffolds for use in immunotherapeutic treatment of various cancers” (Immatics Biotechnologies GmbH, priority 2015, dated 2018).

What was measured:
[1] = system: CD8+ T cells; test: In vitro immunogenicity: T-cell priming with aAPCs loaded with HLA-A*24 peptide/MHC and anti-CD28, multimer staining; format: cell-based, human; conditions: HLA-A*24 peptides
Protocol: CD8+ T cells were primed using artificial APCs coated with anti-CD28 mAb and HLA-A*24 in complex with SEQ ID NO: 99 peptide (FIG. 5A, left panel), SEQ ID NO: 119 peptide (FIG. 5B, left panel), SEQ ID NO: 142 peptide (FIG. 5C, left panel) and SEQ ID NO: 174 peptide FIG. 5 (D, left panel), respectively. After three cycles of stimulation, the detection of peptide-reactive cells was performed by 2D multimer staining with A*24/SEQ ID NO: 99 (FIG. 5A), A*24/SEQ ID NO: 119 (FIG. 5B), A*24/SEQ ID NO: 142 (FIG. 5C) or A*24/SEQ ID NO: 174 (FIG. 5D). Right panels (FIGS. 5A,5B,5C and 5D) show control staining of cells stimulated with irrelevant A*24/peptide complexes. Viable singlet cells were gated for CD8+ lymphocytes. Boolean gates helped excluding false-positive events detected with multimers specific for different peptides. Frequencies of specific multimer+ cells among CD8+ lymphocytes are indicated.
Generation of pMHC/anti-CD28 coated beads, T-cell stimulations and readout was performed in a highly defined in vitro system using four different pMHC molecules per stimulation condition and 8 different pMHC molecules per readout condition.
The purified co-stimulatory mouse IgG2a anti human CD28 Ab 9.3 (Jung et al., 1987) was chemically biotinylated using Sulfo-N-hydroxysuccinimidobiotin as recommended by the manufacturer (Perbio, Bonn, Germany). Beads used were 5.6 μm diameter streptavidin coated polystyrene particles (Bangs Laboratories, Illinois, USA).
800.000 beads/200 μl were coated in 96-well plates in the presence of 4×12.5 ng different biotin-pMHC, washed and 600 ng biotin anti-CD28 were added subsequently in a volume of 200 μl. Stimulations were initiated in 96-well plates by co-incubating 1×10^6 CD8+ T cells with 2×10^5 washed coated beads in 200 μl TCM supplemented with 5 ng/ml IL-12 (PromoCell) for 3 days at 37° C. Half of the medium was then exchanged by fresh TCM supplemented with 80 U/ml IL-2 and incubating was continued for 4 days at 37° C. This stimulation cycle was performed for a total of three times. For the pMHC multimer readout using 8 different pMHC molecules per condition, a two-dimensional combinatorial coding approach was used as previously described (Andersen et al., 2012) with minor modifications encompassing coupling to 5 different fluorochromes. Finally, multimeric analyses were performed by staining the cells with Live/dead near IR dye (Invitrogen, Karlsruhe, Germany), CD8-FITC antibody clone SK1 (BD, Heidelberg, Germany) and fluorescent pMHC multimers. For analysis, a BD LSRII SORP cytometer equipped with appropriate lasers and filters was used. Peptide specific cells were calculated as percentage of total CD8+ cells. Evaluation of multimeric analysis was done using the FlowJo software (Tree Star, Oregon, USA). In vitro priming of specific multimer+CD8+ lymphocytes was detected by comparing to negative control stimulations.

[2] = system: HLA-A*24; test: MHC binding assay, UV-ligand exchange with beta2m ELISA (exchange yield), HLA-A*24; set-up: species or system human; conditions: binding to HLA-A*24, UV-ligand exchange
In short: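 Peptide–MHC complexes formed by UV-ligand exchange: a UV-cleavable peptide is replaced by the test peptide, and only binders keep the complex stable. Exchange yield read by streptavidin-capture ELISA on reactions diluted 100-fold, detected with HRP anti-β2m (2 ug/ml, 1 h, 37° C) and TMB at 450 nm.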

Substance: 96 (YYTQYSQTI; listed as Homo sapiens) [compound 96]
- in vitro immunogenicity, Wells positive [%] [1]: + (<20% = +)
- Peptide exchange (MHC class I binding score, peptide exchange yield) [2]: ++++ (>=75% = ++++)

Substance: 98 (VFPRLHNVLF; listed as Homo sapiens) [compound 98]
- in vitro immunogenicity, Wells positive [%] [1]: + (<20% = +)
- Peptide exchange (MHC class I binding score, peptide exchange yield) [2]: +++ (50%-75% = +++)

Substance: 99 (QYILAVPVL; listed as Homo sapiens) [compound 99]
- in vitro immunogenicity, Wells positive [%] [1]: +++ (50%-69% = +++)
- Peptide exchange (MHC class I binding score, peptide exchange yield) [2]: ++++ (>=75% = ++++)

Substance: 102 (VYPFENFEF; listed as Homo sapiens) [compound 102]
- in vitro immunogenicity, Wells positive [%] [1]: +++ (50%-69% = +++)
- Peptide exchange (MHC class I binding score, peptide exchange yield) [2]: +++ (50%-75% = +++)

Substance: 103 (NYIPVKNGKQF; listed as Homo sapiens) [compound 103]
- in vitro immunogenicity, Wells positive [%] [1]: + (<20% = +)
- Peptide exchange (MHC class I binding score, peptide exchange yield) [2]: +++ (50%-75% = +++)

Substance: 104 (SYLTWHQQI; listed as Homo sapiens) [compound 104]
- in vitro immunogenicity, Wells positive [%] [1]: + (<20% = +)
- Peptide exchange (MHC class I binding score, peptide exchange yield) [2]: ++++ (>=75% = ++++)

Substance: 105 (IYNETITDLL; listed as Homo sapiens) [compound 105]
- in vitro immunogenicity, Wells positive [%] [1]: + (<20% = +)
- Peptide exchange (MHC class I binding score, peptide exchange yield) [2]: +++ (50%-75% = +++)

Substance: 106 (IYNETVRDLL; listed as Homo sapiens) [compound 106]
- in vitro immunogenicity, Wells positive [%] [1]: + (<20% = +)
- Peptide exchange (MHC class I binding score, peptide exchange yield) [2]: +++ (50%-75% = +++)

Substance: 107 (KYFPYLVVI; listed as Homo sapiens) [compound 107]
- in vitro immunogenicity, Wells positive [%] [1]: ++ (20%-49% = ++)
- Peptide exchange (MHC class I binding score, peptide exchange yield) [2]: +++ (50%-75% = +++)

Substance: 109 (LFITGGQFF; listed as Homo sapiens) [compound 109]
- in vitro immunogenicity, Wells positive [%] [1]: ++ (20%-49% = ++)
- Peptide exchange (MHC class I binding score, peptide exchange yield) [2]: ++++ (>=75% = ++++)

Substance: 110 (SYPKIIEEF; listed as Homo sapiens) [compound 110]
- in vitro immunogenicity, Wells positive [%] [1]: ++ (20%-49% = ++)
- Peptide exchange (MHC class I binding score, peptide exchange yield) [2]: +++ (50%-75% = +++)

Substance: 111 (VYVQILQKL; listed as Homo sapiens) [compound 111]
- in vitro immunogenicity, Wells positive [%] [1]: + (<20% = +)
- Peptide exchange (MHC class I binding score, peptide exchange yield) [2]: +++ (50%-75% = +++)

Substance: 112 (IYNFVESKL; listed as Homo sapiens) [compound 112]
- in vitro immunogenicity, Wells positive [%] [1]: +++ (50%-69% = +++)
- Peptide exchange (MHC class I binding score, peptide exchange yield) [2]: +++ (50%-75% = +++)

Substance: 114 (QYLDGTWSL; listed as Homo sapiens) [compound 114]
- in vitro immunogenicity, Wells positive [%] [1]: +++ (50%-69% = +++)
- Peptide exchange (MHC class I binding score, peptide exchange yield) [2]: ++++ (>=75% = ++++)

Substance: 115 (RYLNKSFVL; listed as Homo sapiens) [compound 115]
- in vitro immunogenicity, Wells positive [%] [1]: + (<20% = +)
- Peptide exchange (MHC class I binding score, peptide exchange yield) [2]: +++ (50%-75% = +++)

Substance: 119 (VYRVYVTTF; listed as Homo sapiens) [compound 119]
- in vitro immunogenicity, Wells positive [%] [1]: +++ (50%-69% = +++)
- Peptide exchange (MHC class I binding score, peptide exchange yield) [2]: +++ (50%-75% = +++)

Substance: 120 (GYIEHFSLW; listed as Homo sapiens) [compound 120]
- in vitro immunogenicity, Wells positive [%] [1]: ++ (20%-49% = ++)
- Peptide exchange (MHC class I binding score, peptide exchange yield) [2]: ++++ (>=75% = ++++)

Substance: 122 (EYQARIPEF; listed as Homo sapiens) [compound 122]
- in vitro immunogenicity, Wells positive [%] [1]: ++ (20%-49% = ++)
- Peptide exchange (MHC class I binding score, peptide exchange yield) [2]: +++ (50%-75% = +++)

Substance: 132 (RYPALFPVL; listed as Homo sapiens) [compound 132]
- in vitro immunogenicity, Wells positive [%] [1]: + (<20% = +)
- Peptide exchange (MHC class I binding score, peptide exchange yield) [2]: ++++ (>=75% = ++++)

Substance: 137 (EYLHNCSYF; listed as Homo sapiens) [compound 137]
- in vitro immunogenicity, Wells positive [%] [1]: + (<20% = +)
- Peptide exchange (MHC class I binding score, peptide exchange yield) [2]: ++++ (>=75% = ++++)

Substance: 139 (IFGIFPNQF; listed as Homo sapiens) [compound 139]
- in vitro immunogenicity, Wells positive [%] [1]: ++ (20%-49% = ++)
- Peptide exchange (MHC class I binding score, peptide exchange yield) [2]: +++ (50%-75% = +++)

Substance: 140 (RYLINSYDF; listed as Homo sapiens) [compound 140]
- in vitro immunogenicity, Wells positive [%] [1]: +++ (50%-69% = +++)
- Peptide exchange (MHC class I binding score, peptide exchange yield) [2]: ++++ (>=75% = ++++)

Substance: 142 (VYVDDIYVI; listed as Homo sapiens) [compound 142]
- in vitro immunogenicity, Wells positive [%] [1]: ++++ (>=70% = ++++)
- Peptide exchange (MHC class I binding score, peptide exchange yield) [2]: +++ (50%-75% = +++)

Substance: 144 (VFASLPGFLF; listed as Homo sapiens) [compound 144]
- in vitro immunogenicity, Wells positive [%] [1]: ++ (20%-49% = ++)
- Peptide exchange (MHC class I binding score, peptide exchange yield) [2]: ++++ (>=75% = ++++)

Substance: 155 (IYKWITDNF; listed as Homo sapiens) [compound 155]
- in vitro immunogenicity, Wells positive [%] [1]: ++ (20%-49% = ++)
- Peptide exchange (MHC class I binding score, peptide exchange yield) [2]: ++++ (>=75% = ++++)

Substance: 156 (YYMELTKLLL; listed as Homo sapiens) [compound 156]
- in vitro immunogenicity, Wells positive [%] [1]: + (<20% = +)
- Peptide exchange (MHC class I binding score, peptide exchange yield) [2]: ++++ (>=75% = ++++)

Substance: 157 (DYIPASGFALF; listed as Homo sapiens) [compound 157]
- in vitro immunogenicity, Wells positive [%] [1]: + (<20% = +)
- Peptide exchange (MHC class I binding score, peptide exchange yield) [2]: +++ (50%-75% = +++)

Substance: 158 (IYEETRGVLKVF; listed as Homo sapiens) [compound 158]
- in vitro immunogenicity, Wells positive [%] [1]: + (<20% = +)
- Peptide exchange (MHC class I binding score, peptide exchange yield) [2]: +++ (50%-75% = +++)

Substance: 160 (RYGDGGSSF; listed as Homo sapiens) [compound 160]
- in vitro immunogenicity, Wells positive [%] [1]: + (<20% = +)
- Peptide exchange (MHC class I binding score, peptide exchange yield) [2]: +++ (50%-75% = +++)

Substance: 161 (KYPDIVQQF; listed as Homo sapiens) [compound 161]
- in vitro immunogenicity, Wells positive [%] [1]: + (<20% = +)
- Peptide exchange (MHC class I binding score, peptide exchange yield) [2]: +++ (50%-75% = +++)

Substance: 162 (KYTSYILAF; listed as Homo sapiens) [compound 162]
- in vitro immunogenicity, Wells positive [%] [1]: + (<20% = +)
- Peptide exchange (MHC class I binding score, peptide exchange yield) [2]: ++ (20%-49% = ++)

Substance: 163 (RYLTISNLQF; listed as Homo sapiens) [compound 163]
- in vitro immunogenicity, Wells positive [%] [1]: + (<20% = +)
- Peptide exchange (MHC class I binding score, peptide exchange yield) [2]: ++++ (>=75% = ++++)

Substance: 164 (HYVPATKVF; listed as Homo sapiens) [compound 164]
- in vitro immunogenicity, Wells positive [%] [1]: + (<20% = +)
- Peptide exchange (MHC class I binding score, peptide exchange yield) [2]: +++ (50%-75% = +++)

Substance: 166 (FYTLPFHLI; listed as Homo sapiens) [compound 166]
- in vitro immunogenicity, Wells positive [%] [1]: ++++ (>=70% = ++++)
- Peptide exchange (MHC class I binding score, peptide exchange yield) [2]: ++++ (>=75% = ++++)

Substance: 167 (RYGFYYVEF; listed as Homo sapiens) [compound 167]
- in vitro immunogenicity, Wells positive [%] [1]: ++++ (>=70% = ++++)
- Peptide exchange (MHC class I binding score, peptide exchange yield) [2]: +++ (50%-75% = +++)

Substance: 168 (RYLEAALRL; listed as Homo sapiens) [compound 168]
- in vitro immunogenicity, Wells positive [%] [1]: +++ (50%-69% = +++)
- Peptide exchange (MHC class I binding score, peptide exchange yield) [2]: +++ (50%-75% = +++)
